{"source": "patent US20030185915A1", "about": "“Synergetic composition for the treatment of psoriasis and other skin disorders and method therefor” (priority 2002, published 2003)", "origin": "cited, not measured here", "system": "psoriatic arthritis", "settings": "usually within four to eight weeks"}
{"smiles": "O=C(O)c1cc(/N=N/c2ccc(S(=O)(=O)Nc3ccccn3)cc2)ccc1O", "note": "[Sulfasalazine]", "values": [{"measurement": "fraction of PA patients responding rapidly", "value": "Approximately one-third"}]}
